Tests used:
[1] = test system: RIF-1 murine fibrosarcoma; test: RIF-1 tumor growth delay, thiocolchicine alone and with cisplatin, camptothecin or amonafide (Example 6); assay type: in vivo, C3H mice
Description: Cisplatin for Injection, USP, was obtained as the commercial product from Bristol Laboratories (Platinol®, Lot No. K1F26A). Camptothecin was obtained from Boehinger-Ingelheim Lot 142088. Amonafide dihydrochloride was prepared in house, in a solution of 20 mg/ml. 0.9% Sodium Chloride for Injection, USP (saline) was manufactured by Abbott Laboratories (Lot No. 55-199-DK). Sterile Water for Injection, USP (WFI) was manufactured by Lyphomed, Inc. (Lot No. 390849). DMSO was obtained from Sigma (St. Louis, Mo.). DMF (dimethylformamide) was obtained from Sigma (St. Louis, Mo.). PEG400 was obtained from Sigma (St. Louis, Mo.).
For preparation of cisplatin formulation, the contents of a 10-mg vial of lyophilized CDDP (Cisplatin for Injection) was resuspended with 10 mL WFI to produce a 1 mg/mL CDDP suspension.
Camptothecin was prepared in a solution of DMSO at 0.75 mg/ml.
This was further diluted using saline to […].
Amonafide was diluted to 15 mg/ml with saline.
Food and water were available ad libitum.
Tumors: The RIF-1 murine fibrosarcoma cell line was maintained in in vitro culture (Wayrnouth medium supplemented with 20% fetal bovine serum) at 37° C. in a humidified 5% CO2 incubator. Log-phase RIF-1 cells were trypsinized and harvested from cell culture flasks to yield a concentration of 4×10^6 cells/mL, then injected intradermally in a volume of 50 μL (equivalent to 2×10^5 cells per injection) into both flanks of each mouse. Nine days later, when tumors reached approximately 100 mm^3 in size, the animals were randomized to different treatment groups.
Evaluation of Tumor Growth Delay: Tumors were measured three times weekly for up to 22 days with Vernier calipers. Tumor volume (cubic millimeters, mm^3) was calculated according to the formula: [formula] in which D1-3 are perpendicular diameters measured in millimeters (mm). Tumor volume quadrupling time (TVQT), defined as the time required for a tumor to grow to four times (4×) its initial volume (at the time of treatment), was used as a study endpoint.
The TVQT was determined for each treatment group and expressed in days as the mean±standard error (SE).

[2] = Ex# E048; oral 40 mg/kg; 0/8 tumors
[3] = Ex# E031, IP 4 mg/kg, 4/8 tumors
[4] = Ex# E048, oral 20 mg/kg, 12/16 tumors

With COc1cc2c(c(OC)c1OC)-c1ccc(SC)c(=O)cc1[C@@H](NC(C)=O)CC2 [Thiocolchicine, (S)-N-[5,6,7,9-Tetrahydro-1,2,3-trimethoxy-10-(methylthio)-9-oxobenzo[a]heptalen-7-yl]-acetamide] the “Days to 4× (ave ± SE)” value ([1]; Ex# E031, IP 1 mg/kg) was 8.7 ± 0.4 days, the “Days to 4× Median” value ([1]; Ex# E031, IP 1 mg/kg) was 8.7 days and the “Delay” value ([1]; Ex# E031, IP 1 mg/kg) was 2.08 days. For the same compound, the T/C ([1]; Ex# E031, IP 1 mg/kg) was 1.3, the “Days to 4× (ave ± SE)” value ([1]; Ex# E031, IP 2 mg/kg) was 8.9 ± 0.9 days and the “Days to 4× Median” value ([1]; Ex# E031, IP 2 mg/kg) was 8.1 days. For the same compound, the “Delay” value ([1]; Ex# E031, IP 2 mg/kg) was 1.48 days, the T/C ([1]; Ex# E031, IP 2 mg/kg) was 1.3 and the “Days to 4× (ave ± SE)” value [1, 3] was 13.2 ± 1.2 days. The “Days to 4× Median” value [1, 3] was 13.4 days, the “Delay” value [1, 3] was 6.77 days and the T/C [1, 3] was 2.0. The “Days to 4× (ave ± SE)” value ([1]; Ex# E047, IP 1 mg/kg) was 10.88 ± 1.43 days, the “Days to 4× Median” value ([1]; Ex# E047, IP 1 mg/kg) was 10.13 days and the “Delay” value ([1]; Ex# E047, IP 1 mg/kg) was 2.57 days. The T/C ([1]; Ex# E047, IP 1 mg/kg) was 1.4, the “Days to 4× (ave ± SE)” value ([1]; Ex# E047, IP 1 × 2 mg/kg) was 12.49 ± 0.52 days and the “Days to 4× Median” value ([1]; Ex# E047, IP 1 × 2 mg/kg) was 13.16 days. For the same compound, the “Delay” value ([1]; Ex# E047, IP 1 × 2 mg/kg) was 5.60 days, the T/C ([1]; Ex# E047, IP 1 × 2 mg/kg) was 1.7 and the “Days to 4× (ave ± SE)” value ([1]; Ex# E047, Oral 10 mg/kg) was 11.78 ± 2.08 days. For the same compound, the “Days to 4× Median” value ([1]; Ex# E047, Oral 10 mg/kg) was 9.11 days, the “Delay” value ([1]; Ex# E047, Oral 10 mg/kg) was 1.56 days and the T/C ([1]; Ex# E047, Oral 10 mg/kg) was 1.6. The “Days to 4× (ave ± SE)” value ([1]; Ex# E047, Oral 10 × 2 mg/kg) was 13.65 ± 1.60 days, the “Days to 4× Median” value ([1]; Ex# E047, Oral 10 × 2 mg/kg) was 13.29 days and the “Delay” value ([1]; Ex# E047, Oral 10 × 2 mg/kg) was 5.73 days. The T/C ([1]; Ex# E047, Oral 10 × 2 mg/kg) was 1.8, the “Days to 4× (ave ± SE)” value ([1]; Ex# E048, oral 10 mg/kg) was 10.14 ± 1.15 days and the “Days to 4× Median” value ([1]; Ex# E048, oral 10 mg/kg) was 9.01 days. For the same compound, the “Delay” value ([1]; Ex# E048, oral 10 mg/kg) was 2.77 days, the T/C ([1]; Ex# E048, oral 10 mg/kg) was 1.6 and the “Days to 4× (ave ± SE)” value [1, 4] was 12.34 ± 0.75 days. For the same compound, the “Days to 4× Median” value [1, 4] was 11.52 days, the “Delay” value [1, 4] was 5.28 days and the T/C [1, 4] was 1.9. For the same compound, the “Mortality (printed in the Days to 4× column)” value [2] was “All Died”.

From patent US20050170015A1 (priority 2000, published 2005)
